What is called ED50 is the dose that gives a 50% effect, or the effect in half of the subjects.

Read-outs that look alike come from different tables or passages of the source.

The results in this text go back to patent publication US5173493A, “Pyridoindole derivatives and processes for preparation thereof” (Fujisawa Pharmaceutical Company, Ltd., priority 1988, dated 1992).

One test relates to Benzold-Jarisch reflex. Kind of test: Inhibition of Benzold-Jarisch reflex. Conditions: Rattus norvegicus, 5 min, iv. It counts as in vivo, Male Sprague-Dawley rats.
Test [1] has as its system Cisplatin-induced vomiting. Briefly: Inhibition of Cisplatin-induced vomiting. Format: in vivo, female beagles. The settings on record: Canis lupus familiaris; intravenously twice, 10 minutes prior to and 90 minutes after Cisplatin (3.2 mg/kg, iv); observed up to 5 hours. As to the method: (B) Inhibition of Cisplatin-induced vomiting
Nonfasted female beagles weighing about 10 kg were administered test compound or saline intravenously twice 10 minutes prior to and 90 minutes after Cisplatin dosing (3.2 mg/kg, iv).
Cisplatin was dissolved in 0.9% warm saline with a final concentration of 3 mg/ml and used immediately.

Setting [2] is: inhibition of bradycardic response to 2-methyl-5-hydroxytryptamine (32 μg/kg, iv), anesthetized rats, read-out: ED50.

Description for Benzold-Jarisch reflex: (A) Inhibition of Benzold-Jarisch reflex
Male Sprague-Dawley rats weighing 260-350 g were anesthetized intraperitoneally with 1.25 g/kg urethane.
Blood pressure and heart rate were monitored continuously from the left common carotid artery with a pressure transducer. A right femoral vein was connulated for the intravenous injection (iv) of drugs. The trachea was also connulated to ease the respiration.
Rats were given a rapid bolus injection of 2-methyl-5-hydroxytryptamine (32 μg/kg, iv) to establish the control bradycardic response. Once the heart rate returned to base line, the rats were given the test compound (iv), followed by 5-minutes interval and another bolus injection of 2-methyl-5-hydroxytryptamine (32 μg/kg, iv).

On to `Cc1[nH]cnc1CC1CCc2c(C)c3ccccc3n2C1=O.Cl` (single isomer, unassigned; (+)) [Compound 3, (+)-8,9-Dihydro-10-methyl-7-[(5-methyl-1H-imidazol-4-yl)methyl]pyrido[1,2-a]indol-6(7H)-one hydrochloride], for which the 50% effective dose (ED50) in the test on Benzold-Jarisch reflex (setting [2]) came out at 0.9 µg/kg; in test [1], 1.1 µg/kg.
As to `Cc1[nH]cnc1C(O)C1CCc2c(C)c3ccccc3n2C1=O.O=C(O)/C=C\C(=O)O` (single isomer, unassigned; isomer b) [Compound 1, 8,9-Dihydro-7-[(hydroxy)(5-methyl-1H-imidazol-4-yl)methyl]-10-methylpyrido[1,2-a]indol-6(7H)-one maleate (isomer B)], the ED50 with Benzold-Jarisch reflex (setting [2]) worked out at 5.9 µg/kg.
Compound `Cc1c2n(c3ccccc13)C(=O)C(Cc1c[nH]cn1)CC2` (centres unmarked) [Compound 2, 8,9-Dihydro-7-[(1H-imidazol-4-yl)methyl]-10-methylpyrido[1,2-a]indol-6(7H)-one] registered a median effective dose (ED50) with Benzold-Jarisch reflex of 1.8 µg/kg.
For `Cc1[nH]cnc1CC1(C)CCc2c(C)c3ccccc3n2C1=O` (centres unmarked) [Compound 4, 8,9-Dihydro-7,10-dimethyl-7-[(5-methyl-1H-imidazol-4-yl)methyl]pyrido[1,2-a]indol-6(7H)-one], the ED50 in the test with Benzold-Jarisch reflex (setting [2]) came to 1.1 µg/kg.
